Results: patent US8227616B2, “Cyanopyridine antibacterial agents and methods of use thereof” (Wisconsin Alumni Research Foundation, priority 2006, dated 2012)
≈ marks a conversion by molar mass, not a printed value.

Legend:
[1] = test system: S. aureus ATCC 10390; assay: MIC determination with authentic compounds resynthesized in solution; assay type: cell-based, Staphylococcus aureus; set-up: MIC against S. aureus 10390: unit: uM; conditions: for MIC: Staphylococcus aureus, ATCC10390
Description: (§1) For estimated MIC determination, DMSO was added to the dried compound residue obtained from a single spot to afford ca. 100 μL of a 2 mM stock solution. Aliquots (5 μL) of these solutions were added to a 96-well plate, followed by 195 μL of diluted S. aureus 10390 (10^6 CFUs/mL) to yield ca. 50 μM final concentrations. The plates were swirled for 1 h to ensure compound dissolution, incubated for 12 h at 37° C., and the absorbance at 595 nm was recorded using a plate reader. […] Actual MIC values were determined for lead compounds resynthesized in solution using an analogous procedure with solutions of known concentration (see).
(§2) Dose response growth inhibition curves were determined for each active compound (resynthesized in solution) against S. aureus 10390 (SA) and methicillin-resistant S. aureus 33591 (MRSA). […] MIC assays were performed in quadruplicate.

[2] = test system: Methicillin-resistant S. aureus ATCC 33591 (MRSA); assay: as above; assay type: cell-based; conditions: Staphylococcus aureus; Table 3; authentic sample, only trans isomers of chalcones; error reflects step size in the serial dilutions
Description: as §1, §2

[3] = test system: S. aureus 10390; assay: Time-dependent bacterial killing curves; assay type: cell-based, Staphylococcus aureus; conditions: 0.5x to 4x MIC, 0-6 h
Description: Solutions of compounds 4Bv, 6Ao, 9Cf, and linezolid were prepared in DMSO over a range of concentrations. […] At 0, 2, 4, and 6 h time points, […] samples were withdrawn from the test tubes, diluted into 10 mL of LB broth in a test tube, and swabbed in duplicate on agar plates to determine CFUs. These plates were incubated at 37° C. for 24 h, after which time the colonies were counted visually. […] Instead, 200 μL was removed from the test tube and directly swabbed on the agar plates.

[4] = test system: S. aureus ATCC 10390; assay: Estimated MIC, solution-phase microdilution absorbance assay with crude macroarray spot stock solutions; assay type: cell-based, Staphylococcus aureus; conditions: Staphylococcus aureus, ATCC10390, 12 h
Description: Spots from a new 69 member chalcone macroarray as well as the three heterocyclic macroarrays prepared earlier were punched out, cleaved, and eluted with acetonitrile. The resulting solutions were concentrated to a residue that was taken up in DMSO to form 2 mM stock solutions.
From the stock solutions, microdilution assays in a 96 well plate starting at 50 μM were performed in quadruplicate. Each well contained 5 μL of the stock solution as well as 195 μL of a S. aureus culture. The turbidity of each well was measured after incubating 12 hours using a standard plate reader. Active compounds can be further diluted and the assay repeated.
To acquire more quantitative antibacterial activity data about our compounds and verify our on-support assay results, we performed solution-phase absorbance assays that provided estimates of the minimum inhibitory concentration (MIC) of each macroarray member against S. aureus. Stock solutions (ca. 2 mM) were generated by cleaving and eluting 198 individual compounds from chalcone (3) and heterocyclic macroarrays (5, 7, and 8). […] The good overall purities of the crude macroarray compounds allowed for reasonable estimations of MICs.
as §1
Preparation of spot samples and controls. An aliquot of DMSO (ca. 100 μL depending on the loading of the parent hydroxyacetophenone) was added to the dried compound residue obtained after TFA cleavage and elution from a single spot. This afforded a 2.0 mM “spot stock” solution for each spot. A small aliquot of each “spot stock” solution was saved for subsequent LC-MS analysis.
For estimated MIC screens, 5.0 μL portions of the “spot stock” solutions were added to the appropriate wells in a sterile, polystyrene 96-well plate to yield ca. 50 μM solutions (dependent on the initial loading of hydroxyacetopheneone and compound purity). To the positive and negative control wells, 5.0 μL of DMSO were added (positive controls contained bacteria but no compound, while negative controls had neither compound nor bacteria). All estimated MIC assays were performed in quadruplicate. Note: the MIC value is defined as the lowest concentration where no bacterial growth occurs.
Representative estimated MIC assay procedure. This assay procedure is based in part on the method reported by Strøm et al.^xiii A 400 μL portion of overnight S. aureus 10390 culture was diluted with 100 mL of sterile LB broth to give ca. 10^6 CFUs per mL. Aliquots (195 μL) of this solution were added to all of the wells in a sterile 96-well plate (except for the negative control wells; 195 μL of sterile LB broth were added to these wells). The plates were placed on an orbital shaker table and gently swirled for 1 h to ensure compound dissolution, and then incubated (without shaking) for 12 h at 37° C. The absorbance at 595 nm was recorded using a plate reader.
The original “spot stock” solutions of these compounds were diluted with DMSO to give ca. 25 and 13 μM final concentrations and tested for inhibitory activities using the procedure described above.

[5] = test system: K. pneumoniae; assay: Agar overlay TTC assay, compound overlays; assay type: cell-based, Klebsiella pneumoniae; conditions: 30 nanomole aliquots of purified compound on filter paper
[6] = test system: B. subtilis subsp. spizizenii ATCC 6633; assay: MIC determination, species selectivity; assay type: cell-based; conditions: Bacillus subtilis, ATCC6633; authentic sample, only trans isomers of chalcones; error reflects step size
Description: (§3) Each compound from Table 3 was tested for inhibitory activity at 2.5, 5, 7.5, 10, 15, 20, 25, and 30 μM in the susceptible overlaid strains: B. subtilis ATCC 6633, S. epidermidis ATCC 12228, and K. pneumoniae ATCC 4352. MIC assays were run in quadruplicate as described above (with shaking).

[7] = test system: K. pneumoniae ATCC 4352; assay: MIC determination, species selectivity; assay type: cell-based; conditions: Klebsiella pneumoniae, ATCC4352; authentic sample, only trans isomers of chalcones; error reflects step size
Description: as §3

[8] = test system: S. epidermidis ATCC 12228; assay: MIC determination, species selectivity; assay type: cell-based; conditions: Staphylococcus epidermidis, ATCC12228; authentic sample, only trans isomers of chalcones; error reflects step size
Description: as §3

[9] = test system: S. aureus ATCC 10390; assay: Kirby-Bauer disk diffusion assay on compound spots from cleaved macroarray; assay type: cell-based, Staphylococcus aureus; conditions: loadings 30 μg/spot, 18 h incubation
Description: While the heterocyclic libraries were being synthesized, the chalcone macroarrays were analyzed using various direct assay techniques such as the Kirby-Bauer disk diffusion assay (FIG. 2E). Bauer, A. W.; Kirby, […].; Turck, M. Technical Bulletin of the Registry of Medical Technologists 1966, 36, 49-52. For this assay, the macroarray members are punched out from the membrane, cleaved from the support with TFA vapor, neutralized with ammonia vapor, and then placed on an agar bed inoculated with S. aureus. After incubating overnight, different diameters of zones of inhibition are measured as a factor of potency as well as solubility in the medium. Ammonia vapor neutralization was key in the disk diffusion assay, otherwise residual TFA vapor created a false positive signature. However, in this method, macroarrays have to be made in triplicate one for a replicate and one for compound characterization. We first evaluated test chalcone macroarrays (3) in antibacterial assays against S. aureus. Because the macroarrays were prepared on cellulose filter paper, we had convenient access to the compounds in disk form for standard disk diffusion assays. Compound spots were punched out of the macroarrays, subjected to vapor phase cleavage with acid (TFA), and neutralized (NH3) to afford disks containing ca. 30 μg of adsorbed compound [8]. These disks were manually placed on lawns of S. aureus, and zones of inhibition were measured after an 18 h incubation period. […] However, this antibacterial assay format had drawbacks: (1) the entire sample of compound was consumed during the assay, and thus replicate arrays needed to be synthesized to confirm activity, and (2) manipulating large numbers of compound disks was relatively labor intensive. Compound spots were cleaved with TFA and neutralized with NH3 as described herein. […] Compound spots were placed onto the agar, the plate was incubated at 37° C. for 18 h, and the diameters of the zones of inhibition were measured. […] Compound spots were subjected to the TFA cleavage conditions described above. The spots were next subjected to NH3 vapor to neutralize any remaining TFA. […] Vials containing the spots (or intact macroarrays) were placed inside a small evaporating dish, and this was placed into the NH4OH solution. The Pyrex dish was covered, and NH3 vapor was allowed to slowly diffuse into the vials. After 1 h, the vials were removed from the NH3 chamber, and the spots were allowed to stand open in a fume hood for at least 15 min to vent prior to analysis in the following assays. This afforded dry, paper disks containing adsorbed compound. […] The plates were removed, and the diameters of the zones of inhibition were measured in mm using a ruler (see FIG. 1A).

[10] = Table 2, authentic sample synthesized according to standard techniques, read-out: observed MIC
[11] = Table 3, authentic sample, only trans isomers of chalcones, error reflects step size in the serial dilutions, read-out: S. aureus MIC
[12] = Table 2, serial dilution of stock solutions obtained by SPOT-synthesis, read-out: estimated MIC range
[13] = Table 3, serial dilution of spot stock solutions of crude macroarray compounds, read-out: S. aureus Estimated MIC range

| SMILES | MIC [1, 10] [µM] | MIC [1, 11] [µM] | MIC [2] [µM] | MIC [4, 12] [µM] | MIC [4, 13] [µM] | MIC against S. aureus 10390 ([1]; values quoted in killing-curve protocol, unit not given) | mode of activity (bacteriostatic or bactericidal) [3] | susceptibility in agar overlay TTC assay [5] | MIC [6] [µM] | MIC [7] [µM] | MIC [8] [µM] | Zones of inhibition [9] [mm] |
| --- | --- | --- | --- | --- | --- | --- | --- | --- | --- | --- | --- | --- |
| O=C(/C=C/c1cccc(Br)c1)c1cccc(O)c1 [Compound 4Be, 3-bromo-3′-hydroxychalcone] | 24 ± 2 (≈ 7.28 µg/mL) | 21 ± 1 (≈ 6.37 µg/mL) | 20 ± 1 (≈ 6.06 µg/mL) | 25 to 50 (≈ 7.58 to 15.2 µg/mL) | 25 to 50 (≈ 7.58 to 15.2 µg/mL) |  |  | weakly susceptible | 22.5 ± 2.5 (≈ 6.82 µg/mL) | 40 ± 10 (≈ 12.1 µg/mL) | 22.5 ± 2.5 (≈ 6.82 µg/mL) |  |
| CN[C@H](CC(C)C)C(=O)N[C@H]1C(=O)N[C@@H](CC(N)=O)C(=O)N[C@H]2C(=O)N[C@H]3C(=O)N[C@H](C(=O)N[C@H](C(=O)O)c4cc(O)cc(O)c4-c4cc3ccc4O)[C@H](O)c3ccc(c(Cl)c3)Oc3cc2cc(c3O[C@@H]2O[C@H](CO)[C@@H](O)[C@H](O)[C@H]2O[C@H]2C[C@](C)(N)[C@H](O)[C@H](C)O2)Oc2ccc(cc2Cl)[C@H]1O [vancomycin, reference compound] |  |  |  |  |  |  |  |  |  |  |  | 20 |

More lines, main results first:

| MIC [1, 10] [µM] | MIC [1, 11] [µM] | MIC [2] [µM] | MIC [4, 12] [µM] | MIC [4, 13] [µM] | SMILES | MIC against S. aureus 10390 ([1]; values quoted in killing-curve protocol, unit not given) | mode of activity (bacteriostatic or bactericidal) [3] | susceptibility in agar overlay TTC assay [5] | MIC [6] [µM] | MIC [7] [µM] | MIC [8] [µM] | Zones of inhibition [9] [mm] |
| --- | --- | --- | --- | --- | --- | --- | --- | --- | --- | --- | --- | --- |
| 6 ± 0.5 (≈ 2.02 µg/mL) | 10 ± 1 (≈ 3.37 µg/mL) | 8 ± 1 (≈ 2.7 µg/mL) |  |  | CC(=O)NC[C@H]1CN(c2ccc(N3CCOCC3)c(F)c2)C(=O)O1 [Linezolid, linezolid, reference compound] | ~10.0 | bacteriostatic |  |  |  |  |  |
| > 250 | > 250 | > 250 | > 50 | > 50 | COc1cc(C(=O)/C=C/c2ccc(Br)cc2)ccc1O [Compound 4Cf, 4-bromo-4′-hydroxy-3′-methoxy-chalcone] |  |  |  |  |  |  | < 1 |
| 8.7 ± 1.3 (≈ 3.09 µg/mL) | 10 ± 0.5 (≈ 3.55 µg/mL) | 10 ± 0.5 (≈ 3.55 µg/mL) | 12.5 to 25 (≈ 4.44 to 8.88 µg/mL) | 12.5 to 25 (≈ 4.44 to 8.88 µg/mL) | Cc1nc(-c2ccc(O)cc2)cc(-c2cccc(Cl)c2Cl)c1C#N [Compound 6Al, 4-(2,3-dichlorophenyl)-6-(4-hydroxyphenyl)-2-methyl-3-cyanopyridine] |  |  |  | 6.3 ± 1.2 (≈ 2.24 µg/mL) |  | 12.5 ± 2.5 (≈ 4.44 µg/mL) |  |
